Assay results: US20100055071A1, “Anti-Viral Compounds” (priority 2006, published 2010)

What follows are compounds tested on HCV replication in ET (Huh-lucubineo-ET) cell line (assay: Replicon Assay (HCV replicon luciferase, ET cell line)). Details: Hepatitis C virus; tested at 10 μM; ET (Huh-lucubineo-ET) replicon cells; luciferase activity measured 48-72 hours later; relative to no compound control.
Type: cell-based
Protocol: A cell line, ET (Huh-lucubineo-ET) was used for screening of compounds of the present invention for inhibiting HCV replication. The ET cell line was stably transfected with RNA transcripts harboring a I389luc-ubi-neo/NS3-3′/ET; replicon with firefly luciferase-ubiquitin-neomycin phosphotransferase fusion protein and EMCV-IRES driven NS3-5B polyprotein containing the cell culture adaptive mutations (E1202G; T1280I; K1846T) (Krieger at al, 2001 and unpublished). The ET cells were grown in DMEM (Dulbeco's Modified Eagle's Medium), supplemented with 10% fetal calf serum, 2 mM Glutamine, Penicillin (100 IU/mL)/Streptomycin (100 μg/mL), 1× nonessential amino acids, and 250 μg/mL G418 (“Geneticin”). They were all available through Life Technologies (Bethesda, Md.). The cells were plated at 0.5-1.0×10^4 cells/well in the 96 well plates and incubated for 24 hrs before adding testing compounds. Then the compounds were added to the cells to achieve a final concentration of 0.1 nM to 50 μM and a final DMSO concentration of 0.5%. Luciferase activity were measured 48-72 hours later by adding a lysis buffer and the substrate (Catalog number Glo-lysis buffer E2661 and Bright-Glo luciferase system E2620 Promega, Madison, Wis.). Cells should not be too confluent during the assay. Percent inhibition of replication was plotted relative to no compound control. Under the same condition, cytotoxicity of the compounds was determined using cell proliferation reagent, WST-1 (Roche, Germany). The compounds showing antiviral activities, but no significant cytotoxicities were chosen to determine EC50 and TC50. For these determinations, a 10 point 2-fold serial dilution for each compound was used, which spans a concentration range of 1000 fold. EC50 and similarly TC50 values were calculated by fitting % inhibition at each concentration to the following equation:
% inhibition=100%/[(IC50/[I])^b+1]
where b is Hill's coefficient.
In some preferred embodiments compounds of Formula I will have a % inhibition of at least 20% when tested at 10 μM. In other embodiments the compounds of Formula I will have a % inhibition of at least 50% when tested at 10 μM.
Work on `O=C(Nc1ccc(-c2ccc3nc([C@@H]4CCCN4C(=O)OCc4ccccc4)[nH]c3c2)cc1)C1CC1` [Compound 4058, (S)-2-{6-[4-(Cyclopropanecarbonyl-amino)-phenyl]-1H-benzoimidazol-2-yl}-pyrrolidine-1-carboxylic acid benzyl ester] yielded an inhibition at 10 µM of 97.9%.
Work on `O=C(NCc1ccc(-c2ccc3nc([C@@H]4CCCN4C(=O)OCc4ccccc4)[nH]c3c2)cc1)C1CC1` [Compound 4038, (S)-2-(6-{4-[(Cyclopropanecarbonyl-amino)-methyl]-phenyl}-1H-benzoimidazol-2-yl)-pyrrolidine-1-carboxylic acid benzyl ester] yielded an inhibition at 10 µM of 97%.
With `O=C(NC1CC1)c1ccc(-c2ccc3nc([C@@H]4Cc5ccccc5N4C(=O)OCc4ccccc4)[nH]c3c2)cc1` [Compound 4010, (S)-2-[6-(4-Cyclopropylcarbamoyl-phenyl)-1H-benzoimidazol-2-yl]-2,3-dihydro-indole-1-carboxylic acid benzyl ester] the inhibition at 10 µM was 96.8%.
`O=C(NC1CC1)c1ccc(-c2ccc3[nH]c([C@@H]4CSC(c5ccncc5)N4C(=O)OCc4ccccc4)nc3c2)cc1` (stereo in doubt) [Compound 4006, (S)-4-[5-(4-Cyclopropylcarbamoyl-phenyl)-1H-benzoimidazol-2-yl]-2-pyridin-4-yl-thiazolidine-3-carboxylic acid benzyl ester] showed an inhibition at 10 µM of 99.8%.
`O=C(Nc1ccc(-c2ccc([C@@H]3CCCN3C(=O)OCc3ccccc3)cc2)cc1)C1CC1` (stereo in doubt) [Compound 4026, 2-[4′-(Cyclopropanecarbonyl-amino)-biphenyl-4-yl]-pyrrolidine-1-carboxylic acid benzyl ester] was tested, and the inhibition at 10 µM was 47.6%.
With `O=C(Nc1cccc(-c2ccc([C@@H]3CCCN3C(=O)OCc3ccccc3)cc2)c1)C1CC1` (stereo in doubt) [Compound 4009, 2-[3′-(Cyclopropanecarbonyl-amino)-biphenyl-4-yl]-pyrrolidine-1-carboxylic acid benzyl ester] the inhibition at 10 µM was 31.7%.
